In US8802720B2, “Acylamino-substituted fused cyclopentanecarboxylic acid derivatives and their use as pharmaceuticals” (SANOFI, priority 2008, dated 2014):

Molecular target: human Edg-2 receptor (LPA1 receptor) (Homo sapiens, UniProt Q92633)
Assay: Edg-2 receptor inhibition by FLIPR calcium fluorescence measurement (LPA-mediated calcium liberation)
Assay type: cell-based
Settings: CHO cells stably overexpressing human Edg-2 receptor; LPA 18:1 100 nM; fluo-4 fluorescence; triplicate; read-out: Inhibitory concentrations IC50 for inhibition of the Edg-2 receptor
Description: A) Determination of Edg-2 Receptor Inhibition by Fluorescence Imaging Plate Reader (FLIPR) Measurements
The inhibition of the Edg-2 receptor (LPA1 receptor) by the compounds of the invention was quantified by the inhibitory effect on the LPA-mediated calcium liberation in a cell-based calcium fluorescence assay by use of Chinese hamster ovarian (CHO) cells in which the human Edg-2 receptor was stably overexpressed (FIp-In system, Invitrogen). […] Changes in intracellular calcium were determined by fluorescence measurement with the calcium-sensitive dye fluo-4 (Invitrogen) in a fluorescence imaging plate reader (FLIPR, […]).
CHO cells stably overexpressing the human Edg-2 receptor were seeded (40.000 per well) in black clear-bottomed poly-D-lysine-coated 96 well plates (Becton Dickinson, Biocoat cellware) approximately 18-24 h prior to the experiments. Cells were grown in an incubator at 37° C., 5% carbon dioxide and 95% humidity in cell culture media based on F-12 glutamax media (Gibco, #31765) supplemented with 1% (vol/vol) penicilline/streptomycine (PAN, #P06-07100), 10% (vol/vol) fetal calf serum (FCS, PAA, #A15-151) and hygromycin B (Invitrogen, #10687-010) 300 mg/l (final concentrations).
Prior to the FLIPR experiment, cells were loaded with fluo-4 acetoxymethyl ester (fluo-4 AM, Invitrogen, #F14202) for 60 min in an incubator at 37° C., 5% carbon dioxide and 95% humidity in dye-loading buffer consisting of Hanks' Balanced Salt Solution (HBSS, Invitrogen, #14065049) supplemented with fluo-4 AM at 2 μM (all data given for final concentration), Pluronic® F-127 0.05% (vol/vol) (Invitrogen, #P-3000 MP), HEPES 20 mM (Gibco, #15630), probenecid 2.5 mM (Sigma, #P-8761) and bovine serum albumin 0.05% (BSA, Sigma, #A-6003), adjusted to pH 7.5 with sodium hydroxide. During cell loading, fluo-4 AM is cleaved by intracellular esterase resulting in trapping of the dye fluo-4 within the cells. Loading was terminated by washing of the cells in a cell washer (Tecan Power washer) three times with the buffer specified afore but without fluo-4 AM and BSA. This latter buffer was also used as the buffer in the subsequent cell fluorescence measurements.
The dye-loaded and washed cells were pre-incubated for approximately 5 min with various concentrations of the test compound added as a solution in DMSO (0.3% vol/vol maximum final concentration of DMSO), or with DMSO in the respective concentration only (positive control). Subsequent addition of LPA (18:1, 1-oleoyl-sn-glycerol 3-phosphate; 100 nM final concentration) leads to liberation of intracellular calcium from internal stores resulting in a large transient increase of the fluo-4 fluorescence signal which was monitored over approximately 3 min. The percent inhibition caused by the test compound was determined from the maximum fluorescence response after LPA addition to cells pre-incubated with the compound as compared to the maximum fluorescence response after LPA addition to cells pre-incubated with DMSO only. All fluorescence values were corrected for the baseline fluorescence values obtained with cells which were pre-incubated with DMSO only and were not treated with LPA (baseline control). All measurements were performed in triplicate. From the percent inhibitions the inhibitory concentration IC50 was determined.

human Edg-2 receptor (LPA1 receptor), sequence (Q92633 whole entry): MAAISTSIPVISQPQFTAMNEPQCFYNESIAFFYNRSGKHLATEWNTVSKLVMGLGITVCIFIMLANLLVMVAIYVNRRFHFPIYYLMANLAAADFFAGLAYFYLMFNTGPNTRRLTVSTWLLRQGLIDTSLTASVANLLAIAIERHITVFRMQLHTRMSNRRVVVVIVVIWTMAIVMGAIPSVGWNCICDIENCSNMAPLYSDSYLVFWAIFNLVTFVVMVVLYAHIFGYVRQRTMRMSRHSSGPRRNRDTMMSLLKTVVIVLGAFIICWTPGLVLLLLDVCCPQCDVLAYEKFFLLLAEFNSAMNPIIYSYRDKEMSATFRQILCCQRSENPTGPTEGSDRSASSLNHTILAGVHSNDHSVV

SMILES | IC50
COc1ccc(C(=O)NC2(C(=O)O)Cc3ccccc3C2)cc1OS(=O)(=O)c1ccccc1 [Example 109, 2-(3-Benzenesulfonyloxy-4-methoxy-benzoylamino)-indane-2-carboxylic acid] | 1000 to 30000 nM
COc1ccc(C(=O)NC2(C(=O)O)Cc3ccccc3C2)cc1OS(=O)(=O)c1ccc(C)cc1 [Example 110] | 1000 to 30000 nM
COc1ccc(C(=O)NC2(C(=O)O)Cc3ccccc3C2)cc1OS(=O)(=O)c1cccc(C)c1 [Example 111, 2-[3-(toluene-3-sulfonyloxy)-4-methoxy-benzoylamino]-indane-2-carboxylic acid] | 1000 to 30000 nM
COc1ccc(C(=O)NC2(C(=O)O)Cc3ccccc3C2)cc1OS(=O)(=O)c1ccccc1C [Example 112] | 1000 to 30000 nM
COc1ccc(C(=O)NC2(C(=O)O)Cc3ccccc3C2)cc1C(=O)COc1cccc(C)c1 [Example 113, 2-[4-Methoxy-3-(2-m-tolyloxy-acetyl)-benzoylamino]-indane-2-carboxylic acid] | 1000 to 30000 nM
COc1ccc(C(=O)NC2(C(=O)O)Cc3ccccc3C2)cc1C(O)COc1cccc(C)c1 (stereo not drawn) [Example 114, 2-[3-(1-Hydroxy-2-m-tolyloxy-ethyl)-4-methoxy-benzoylamino]-indane-2-carboxylic acid] | 1000 to 30000 nM
COc1ccc(C(=O)NC2(C(=O)O)Cc3ccccc3C2)cc1CCOc1cccc(C)c1 [Example 115, 2-[4-Methoxy-3-(2-m-tolyloxy-ethyl)-benzoylamino]-indane-2-carboxylic acid] | 1000 to 30000 nM
COc1ccc(C(=O)NC2(C(=O)O)Cc3ccccc3C2)cc1CCCc1cccc(C)c1 [Example 116, 2-[4-Methoxy-3-(3-m-tolyl-propyl)-benzoylamino]-indane-2-carboxylic acid] | < 100 nM
COc1ccc(C(=O)NC2(C(=O)O)Cc3ccccc3C2)cc1NC(=O)Cc1ccccc1 [Example 117, 2-(4-Methoxy-3-phenylacetylamino-benzoylamino)-indane-2-carboxylic acid] | 100 to 1000 nM
COc1ccc(C(=O)NC2(C(=O)O)Cc3ccccc3C2)cc1NC(=O)Cc1cccc(Br)c1 [Example 118] | 1000 to 30000 nM
COc1ccc(C(=O)NC2(C(=O)O)Cc3ccccc3C2)cc1NC(=O)Cc1cccc(Cl)c1 [Example 119] | 1000 to 30000 nM
COc1ccc(C(=O)NC2(C(=O)O)Cc3ccccc3C2)cc1NC(=O)c1cccc(F)c1 [Example 120, 2-[3-[3-fluoro-benzoylamino)-4-methoxy-benzoylamino)-indane-2-carboxylic acid] | 1000 to 30000 nM
COc1ccc(C(=O)NC2(C(=O)O)Cc3ccccc3C2)cc1NCc1ccc(F)cc1 [Example 121, 2-[3-(4-Fluoro-benzylamino)-4-methoxy-benzoylamino]-indane-2-carboxylic acid] | 1000 to 30000 nM
COc1ccc(C(=O)NC2(C(=O)O)Cc3ccccc3C2)cc1NCCc1ccccc1 [Example 122, 2-[3-[2-phenyl-ethylamino)-4-methoxy-benzoylamino)-indane-2-carboxylic acid] | 100 to 1000 nM
COc1ccc(C(=O)NC2(C(=O)O)Cc3ccccc3C2)cc1NCc1cccc(Cl)c1 [Example 123] | 1000 to 30000 nM
COc1ccc(C(=O)NC2(C(=O)O)Cc3ccccc3C2)cc1NCC(C)c1ccccc1 (stereo not drawn) [Example 124] | 100 to 1000 nM
COc1ccc(C(=O)NC2(C(=O)O)Cc3ccccc3C2)cc1OCc1cccc(C)c1 [Example 126] | 1000 to 30000 nM
COc1ccc(C(=O)NC2(C(=O)O)Cc3ccccc3C2)cc1OCCc1cccc(C(F)(F)F)c1 [Example 127, 2-{4-methoxy-3-[2-(3-trifluoromethyl-phenyl)-ethoxy]-benzoylamino}-indane-2-carboxylic acid] | < 100 nM
O=C(NC1(C(=O)O)Cc2ccccc2C1)c1ccc(Cl)c(OCCc2cccc(C(F)(F)F)c2)c1 [Example 128] | 100 to 1000 nM
Cc1cccc(CCOc2cc(C(=O)NC3(C(=O)O)Cc4ccccc4C3)ccc2C)c1 [Example 129] | 100 to 1000 nM
COc1ccc(C(=O)NC2(C(=O)O)Cc3ccccc3C2)cc1OCCc1ccccc1 [Example 130] | < 100 nM
